Source: ChEMBL document CHEMBL4715771 (Bioorg Med Chem, 2016)
The source made the active and inactive calls. The calls are words filed in the database; no cut-off is given here.

Key:
[1] = test system: MDA-MB-231; assay: Antiproliferative activity against triple-negative human MDA-MB-231 cells overexpressing c-Met assessed as inhibition of cell proliferation measured after 72 hrs by MTT assay; format: functional, cell-based; details: MDA-MB-231, 72 h
[2] = test system: MDA-MB-468; assay: Antiproliferative activity against triple-negative human MDA-MB-468 cells overexpressing c-Met assessed as inhibition of cell proliferation measured after 72 hrs by MTT assay; format: functional, cell-based; details: MDA-MB-468, 72 h
[3] = test system: MCF7; assay: Antiproliferative activity against estrogen-dependent human MCF7 cells assessed as inhibition of cell proliferation measured after 72 hrs by MTT assay; format: functional, cell-based; details: MCF7, 72 h
[4] = test system: T47D; assay: Antiproliferative activity against estrogen-dependent human T47D cells assessed as inhibition of cell proliferation measured after 72 hrs by MTT assay; format: functional, cell-based
[5] = test system: SK-BR-3; assay: Antiproliferative activity against ER-deficient human SK-BR-3 cells overexpressing HER2 assessed as inhibition of cell proliferation measured after 72 hrs by MTT assay; format: functional, cell-based; details: SK-BR-3, 72 h
[6] = test system: BT-474; assay: Antiproliferative activity against ER-positive human BT-474 cells overexpressing HER2 assessed as inhibition of cell proliferation measured after 72 hrs by MTT assay; format: functional, cell-based; details: BT-474, 72 h
[7] = molecular target: T1, Hepatocyte growth factor receptor (Homo sapiens, UniProt P08581); assay: Inhibition of c-MET kinase domain (unknown origin) using Tyr6 peptide as substrate measured after 1 hr in presence of ATP by Z'-lyte kinase assay
T1 sequence (P08581 whole entry, the tested form may be a part): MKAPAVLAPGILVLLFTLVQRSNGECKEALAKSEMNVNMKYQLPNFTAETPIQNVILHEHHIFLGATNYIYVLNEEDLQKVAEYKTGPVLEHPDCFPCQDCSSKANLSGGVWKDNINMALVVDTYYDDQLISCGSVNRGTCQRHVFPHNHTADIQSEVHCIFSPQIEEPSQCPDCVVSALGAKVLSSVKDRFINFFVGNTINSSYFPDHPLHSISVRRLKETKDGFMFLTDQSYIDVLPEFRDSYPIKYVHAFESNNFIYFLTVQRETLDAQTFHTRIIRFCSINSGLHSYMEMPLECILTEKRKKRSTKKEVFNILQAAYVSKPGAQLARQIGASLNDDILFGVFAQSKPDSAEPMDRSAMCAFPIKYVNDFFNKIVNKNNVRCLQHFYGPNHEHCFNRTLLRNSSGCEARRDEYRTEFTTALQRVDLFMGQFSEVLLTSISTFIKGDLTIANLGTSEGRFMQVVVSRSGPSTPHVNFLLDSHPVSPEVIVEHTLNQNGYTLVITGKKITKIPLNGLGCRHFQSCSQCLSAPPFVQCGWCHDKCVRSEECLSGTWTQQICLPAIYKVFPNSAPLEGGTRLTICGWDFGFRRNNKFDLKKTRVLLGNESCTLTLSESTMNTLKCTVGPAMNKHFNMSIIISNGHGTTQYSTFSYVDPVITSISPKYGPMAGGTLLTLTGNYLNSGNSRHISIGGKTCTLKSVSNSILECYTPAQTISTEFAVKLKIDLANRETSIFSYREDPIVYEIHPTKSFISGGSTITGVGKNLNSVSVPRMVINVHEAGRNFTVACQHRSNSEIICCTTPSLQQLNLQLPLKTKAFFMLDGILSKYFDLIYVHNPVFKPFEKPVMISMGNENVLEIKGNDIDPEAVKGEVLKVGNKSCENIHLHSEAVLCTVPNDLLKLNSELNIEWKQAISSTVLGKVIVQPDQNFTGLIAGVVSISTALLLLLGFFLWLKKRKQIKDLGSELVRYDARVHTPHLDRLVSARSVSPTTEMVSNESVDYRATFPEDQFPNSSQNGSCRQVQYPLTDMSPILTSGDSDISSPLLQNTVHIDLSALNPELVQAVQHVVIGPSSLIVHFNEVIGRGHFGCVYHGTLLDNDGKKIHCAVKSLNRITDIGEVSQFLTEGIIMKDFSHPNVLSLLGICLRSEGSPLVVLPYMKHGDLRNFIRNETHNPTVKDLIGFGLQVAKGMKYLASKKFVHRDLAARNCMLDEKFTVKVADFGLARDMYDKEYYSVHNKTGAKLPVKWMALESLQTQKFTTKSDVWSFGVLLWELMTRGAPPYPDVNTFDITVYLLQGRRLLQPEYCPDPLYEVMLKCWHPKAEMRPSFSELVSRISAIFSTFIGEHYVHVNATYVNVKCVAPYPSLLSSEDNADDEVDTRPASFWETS

[8] = molecular target: T1, Hepatocyte growth factor receptor; assay: Inhibition of c-MET in human MDA-MB-231 cells assessed as downregulation of activated phosphorylated Akt level measured after 72 hrs in presence of HGF by immunoblot analysis; format: cell-based; details: dose 1-3 µM
[9] = molecular target: T1, Hepatocyte growth factor receptor; assay: Inhibition of c-MET in human MDA-MB-231 cells assessed as downregulation of activated phosphorylated mTOR level measured after 72 hrs in presence of HGF by immunoblot analysis; format: cell-based; details: dose 1-3 µM
[10] = molecular target: T1, Hepatocyte growth factor receptor; assay: Inhibition of c-MET in human MDA-MB-231 cells assessed as downregulation of activated phosphorylated FAK level measured after 72 hrs in presence of HGF by immunoblot analysis; format: cell-based; details: dose 1-3 µM
[11] = molecular target: T1, Hepatocyte growth factor receptor; assay: Inhibition of c-MET in human MDA-MB-231 cells assessed as downregulation of activated phosphorylated paxillin level measured after 72 hrs in presence of HGF by immunoblot analysis; format: cell-based; details: dose 1-3 µM
[12] = molecular target: T1, Hepatocyte growth factor receptor; assay: Inhibition of c-MET in human MDA-MB-231 cells assessed as downregulation of activated phosphorylated MAPK level measured after 72 hrs in presence of HGF by immunoblot analysis; format: cell-based; details: dose 1-3 µM
[13] = test system: MDA-MB-231; assay: Cytotoxicity against human MDA-MB-231 cells assessed as induction of necrotic cell death by measuring LDH release at 0.5 to 8 uM measured after 24 hrs by LDH release assay; format: functional, cell-based; details: dose 0.5-8 µM
[14] = test system: MCF-10A; assay: Cytotoxicity against human MCF-10A cells assessed as cell death at 1 to 15 uM measured after 24 hrs by MTT assay; format: cell-based; details: dose 1-15 µM
[15] = Cytotoxicity against human MCF-10A cells assessed as reduction in cell viability at 15 uM measured after 24 hrs by MTT assay relative to control; format: cell-based; details: read-out: INH
[16] = molecular target: Tyrosine-protein kinase ABL1 (Homo sapiens) (UniProt P00519); assay: Inhibition of recombinant full length His-tagged human ABL1 expressed in baculovirus expression system at 10 uM by TR-FRET assay relative to control
[17] = molecular target: ALK tyrosine kinase receptor (Homo sapiens) (UniProt Q9UM73); assay: Inhibition of recombinant GST-tagged human ALK (1058 to 1620 residues) expressed in baculovirus expression system at 10 uM by TR-FRET assay relative to control
Chain of ALK tyrosine kinase receptor (Homo sapiens) (Q9UM73 19-1620 limits assumed): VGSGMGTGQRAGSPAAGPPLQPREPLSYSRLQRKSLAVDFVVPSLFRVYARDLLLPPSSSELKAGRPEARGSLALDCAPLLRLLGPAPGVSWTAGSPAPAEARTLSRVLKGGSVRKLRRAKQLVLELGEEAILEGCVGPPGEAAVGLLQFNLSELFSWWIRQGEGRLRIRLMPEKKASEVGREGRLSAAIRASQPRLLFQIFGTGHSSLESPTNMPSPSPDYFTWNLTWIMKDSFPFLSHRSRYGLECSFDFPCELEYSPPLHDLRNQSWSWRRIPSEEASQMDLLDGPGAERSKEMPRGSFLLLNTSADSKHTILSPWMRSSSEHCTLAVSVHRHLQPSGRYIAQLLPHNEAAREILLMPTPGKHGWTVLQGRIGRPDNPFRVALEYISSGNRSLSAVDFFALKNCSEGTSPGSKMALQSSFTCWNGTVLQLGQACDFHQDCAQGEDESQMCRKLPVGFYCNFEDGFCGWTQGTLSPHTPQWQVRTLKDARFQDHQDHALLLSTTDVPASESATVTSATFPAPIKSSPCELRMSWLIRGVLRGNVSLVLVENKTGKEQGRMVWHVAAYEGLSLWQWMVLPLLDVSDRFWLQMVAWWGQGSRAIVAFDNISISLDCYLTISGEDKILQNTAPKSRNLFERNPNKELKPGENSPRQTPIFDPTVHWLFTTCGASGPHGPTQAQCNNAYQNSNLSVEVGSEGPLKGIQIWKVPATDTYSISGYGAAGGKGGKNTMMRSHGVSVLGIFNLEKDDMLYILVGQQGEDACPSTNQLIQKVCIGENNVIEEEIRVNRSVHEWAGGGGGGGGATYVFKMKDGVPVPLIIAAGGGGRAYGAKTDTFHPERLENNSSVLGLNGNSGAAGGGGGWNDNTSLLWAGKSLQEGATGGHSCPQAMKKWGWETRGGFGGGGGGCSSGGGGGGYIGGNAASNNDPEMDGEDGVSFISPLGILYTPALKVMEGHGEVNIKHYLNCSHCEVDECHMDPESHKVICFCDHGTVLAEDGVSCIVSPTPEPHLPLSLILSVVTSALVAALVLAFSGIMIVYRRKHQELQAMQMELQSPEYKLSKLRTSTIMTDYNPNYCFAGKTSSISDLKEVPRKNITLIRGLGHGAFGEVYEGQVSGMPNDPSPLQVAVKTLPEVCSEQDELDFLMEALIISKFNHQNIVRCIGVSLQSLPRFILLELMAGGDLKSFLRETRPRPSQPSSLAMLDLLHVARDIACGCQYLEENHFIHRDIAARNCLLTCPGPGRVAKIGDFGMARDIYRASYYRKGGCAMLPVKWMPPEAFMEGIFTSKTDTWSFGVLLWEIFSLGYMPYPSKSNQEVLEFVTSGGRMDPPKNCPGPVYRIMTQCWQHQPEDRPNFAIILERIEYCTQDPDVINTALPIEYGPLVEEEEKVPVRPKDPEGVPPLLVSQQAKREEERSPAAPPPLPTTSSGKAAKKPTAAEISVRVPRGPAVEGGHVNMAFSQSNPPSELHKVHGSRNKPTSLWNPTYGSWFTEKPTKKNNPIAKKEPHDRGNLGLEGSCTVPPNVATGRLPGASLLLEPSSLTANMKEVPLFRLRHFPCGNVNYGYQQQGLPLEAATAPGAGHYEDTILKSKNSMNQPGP

[18] = molecular target: Tyrosine-protein kinase receptor UFO (Homo sapiens) (UniProt P30530); assay: Inhibition of recombinant His-tagged human AXL (473 to end residues) expressed in insect cells at 10 uM by TR-FRET assay relative to control
Chain of Tyrosine-protein kinase receptor UFO (Homo sapiens) (P30530 whole entry, the tested form may be a part): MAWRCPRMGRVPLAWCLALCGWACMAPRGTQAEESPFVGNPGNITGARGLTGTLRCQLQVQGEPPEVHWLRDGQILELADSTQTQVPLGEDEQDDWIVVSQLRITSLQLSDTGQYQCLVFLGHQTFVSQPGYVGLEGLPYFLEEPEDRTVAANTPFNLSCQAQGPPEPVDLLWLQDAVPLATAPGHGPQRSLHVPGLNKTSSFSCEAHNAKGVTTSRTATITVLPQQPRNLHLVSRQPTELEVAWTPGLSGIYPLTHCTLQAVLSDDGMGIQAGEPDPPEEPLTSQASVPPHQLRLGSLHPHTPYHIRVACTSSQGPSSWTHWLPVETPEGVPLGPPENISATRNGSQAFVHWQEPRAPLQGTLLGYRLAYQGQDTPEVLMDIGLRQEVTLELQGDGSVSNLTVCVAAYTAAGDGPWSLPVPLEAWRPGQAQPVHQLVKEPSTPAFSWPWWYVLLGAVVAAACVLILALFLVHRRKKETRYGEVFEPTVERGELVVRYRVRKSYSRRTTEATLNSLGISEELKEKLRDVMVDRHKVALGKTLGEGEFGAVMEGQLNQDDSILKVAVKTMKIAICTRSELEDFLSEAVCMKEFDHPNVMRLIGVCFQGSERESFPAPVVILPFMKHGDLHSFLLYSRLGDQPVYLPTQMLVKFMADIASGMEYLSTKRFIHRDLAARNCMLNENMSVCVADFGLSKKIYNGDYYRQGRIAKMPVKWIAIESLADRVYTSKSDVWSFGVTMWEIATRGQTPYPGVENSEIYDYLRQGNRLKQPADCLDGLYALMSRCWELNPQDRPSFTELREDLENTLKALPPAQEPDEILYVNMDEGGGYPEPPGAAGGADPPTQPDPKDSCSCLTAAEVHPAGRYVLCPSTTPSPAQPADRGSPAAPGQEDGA

[19] = molecular target: Epidermal growth factor receptor (Homo sapiens) (UniProt P00533); assay: Inhibition of recombinant GST-tagged human EGFR (668 to 1210 residues) expressed in baculovirus expression system at 10 uM by TR-FRET assay relative to control
[20] = molecular target: Receptor tyrosine-protein kinase erbB-2 (Homo sapiens) (UniProt P04626); assay: Inhibition of recombinant His-tagged human Erbb2 (676 to 1255 residues) expressed in baculovirus expression system at 10 uM by TR-FRET assay relative to control
Chain of Receptor tyrosine-protein kinase erbB-2 (Homo sapiens) (P04626 whole entry, the tested form may be a part): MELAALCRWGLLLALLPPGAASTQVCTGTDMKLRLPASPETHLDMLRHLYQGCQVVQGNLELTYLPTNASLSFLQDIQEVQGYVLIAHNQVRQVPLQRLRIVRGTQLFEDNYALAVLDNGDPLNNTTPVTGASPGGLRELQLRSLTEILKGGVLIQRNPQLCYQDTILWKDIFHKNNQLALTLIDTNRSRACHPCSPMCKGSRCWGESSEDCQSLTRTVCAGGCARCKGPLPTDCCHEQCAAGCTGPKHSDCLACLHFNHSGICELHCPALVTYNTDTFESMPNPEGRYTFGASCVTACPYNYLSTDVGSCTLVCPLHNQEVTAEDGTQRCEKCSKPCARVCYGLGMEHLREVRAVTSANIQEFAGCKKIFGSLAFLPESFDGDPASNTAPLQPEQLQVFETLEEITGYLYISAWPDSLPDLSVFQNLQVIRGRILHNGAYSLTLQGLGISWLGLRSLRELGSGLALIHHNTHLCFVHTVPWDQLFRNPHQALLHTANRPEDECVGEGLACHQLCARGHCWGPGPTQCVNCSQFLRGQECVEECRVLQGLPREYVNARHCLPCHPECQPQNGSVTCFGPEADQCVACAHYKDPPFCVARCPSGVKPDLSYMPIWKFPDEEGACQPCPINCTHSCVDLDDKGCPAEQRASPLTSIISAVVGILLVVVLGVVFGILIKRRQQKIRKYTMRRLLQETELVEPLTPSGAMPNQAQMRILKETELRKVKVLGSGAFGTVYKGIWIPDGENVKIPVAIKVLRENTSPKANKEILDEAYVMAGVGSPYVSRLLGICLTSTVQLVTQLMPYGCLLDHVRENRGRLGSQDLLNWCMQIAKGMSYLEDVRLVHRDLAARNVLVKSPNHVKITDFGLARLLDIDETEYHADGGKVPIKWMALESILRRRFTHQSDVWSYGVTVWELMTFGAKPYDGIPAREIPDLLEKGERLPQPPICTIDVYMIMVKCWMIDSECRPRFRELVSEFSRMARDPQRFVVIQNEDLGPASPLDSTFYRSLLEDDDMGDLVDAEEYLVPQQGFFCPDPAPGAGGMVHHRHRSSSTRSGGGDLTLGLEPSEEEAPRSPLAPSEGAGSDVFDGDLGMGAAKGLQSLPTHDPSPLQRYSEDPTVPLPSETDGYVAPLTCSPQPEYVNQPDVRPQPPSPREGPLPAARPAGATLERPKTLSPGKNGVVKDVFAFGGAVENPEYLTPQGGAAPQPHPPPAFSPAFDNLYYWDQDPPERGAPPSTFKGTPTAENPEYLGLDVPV

[21] = molecular target: Fibroblast growth factor receptor 1 (Homo sapiens) (UniProt P11362); assay: Inhibition of recombinant His-tagged human FGFR1 (308 to 731 residues) expressed in baculovirus expression system at 10 uM by TR-FRET assay relative to control
[22] = molecular target: Insulin-like growth factor 1 receptor (Homo sapiens) (UniProt P08069); assay: Inhibition of recombinant C-terminal His-tagged human IGF1R (960 to 1397 residues) expressed in baculovirus expression system at 10 uM by TR-FRET assay relative to control
[23] = molecular target: T1, Hepatocyte growth factor receptor; assay: Inhibition of recombinant N-terminal His-tagged human MET (956 to 1390 residues) expressed in baculovirus expression system at 10 uM by TR-FRET assay relative to control
[24] = molecular target: Macrophage-stimulating protein receptor (Homo sapiens) (UniProt Q04912); assay: Inhibition of recombinant GST-tagged human RON (983 to 1440 residues) expressed in baculovirus expression system at 10 uM by TR-FRET assay relative to control
[25] = molecular target: Proto-oncogene tyrosine-protein kinase ROS (Homo sapiens) (UniProt P08922); assay: Inhibition of recombinant GST-tagged human ROS1 (1883 to 2347 residues) expressed in baculovirus expression system at 10 uM by TR-FRET assay relative to control
[26] = test system: MDA-MB-231; assay: Antitumor activity against GFP-tagged human MDA-MB-231 cells xenografted in athymic nude-Foxn1nu/Foxn1+ mouse assessed as the tumor volume at 10 mg/kg, ip dosed 3 times per week for 3 weeks treatment started 10 days of post inoculation by digital caliper method (reference value: 2048 mm3); format: functional
[27] = test system: MDA-MB-231; assay: Antitumor activity against GFP-tagged human MDA-MB-231 cells xenografted in athymic nude-Foxn1nu/Foxn1+ mouse assessed as the reduction in tumor growth at 10 mg/kg, ip dosed 3 times per week for 3 weeks treatment started 10 days of post inoculation digital caliper method relative to control; format: functional; details: MDA-MB-231, ip, 504 h, read-out: TGI
[28] = Toxicity in athymic nude-Foxn1nu/Foxn1+ mouse assessed as effect on body weight at 10 mg/kg, ip dosed 3 times per week for 3 weeks treatment started 10 days of post inoculation; format: organism-based; details: in vivo, 504 h
[29] = test system: Mus musculus; assay: Downregulation of phosphorylated c-Met level in tumor of athymic nude-Foxn1nu/Foxn1+ mouse xenografted with GFP-tagged human MDA-MB-231 cells at 10 mg/kg, ip dosed 3 times per week for 3 weeks treatment started 10 days of post inoculation by western blot analysis; format: functional, organism-based
[30] = molecular target: T1, Hepatocyte growth factor receptor; assay: Inhibition of c-MET in human MDA-MB-231 cells assessed as downregulation of activated phosphorylated c-MET level at 1 to 3 uM measured after 72 hrs in presence of HGF by immunoblot analysis; format: cell-based; details: dose 1-3 µM
[31] = test system: MDA-MB-231; assay: Antiinvasive activity against human MDA-MB-231 cells overexpressing c-Met assessed as inhibition of cell invasion at 2 uM measured after 24 hrs by Calcein AM dye based fluorescence assay; format: functional
[32] = test system: MDA-MB-231; assay: cells; details: Homo sapiens, MDA-MB-231, 23 h
[33] = test system: MDA-MB-231; assay: cells; details: Homo sapiens, MDA-MB-231, 24 h
[34] = molecular target: T1, Hepatocyte growth factor receptor; assay: Inhibition of c-MET in human MDA-MB-231 cells assessed as downregulation of activated phosphorylated c-MET level measured after 72 hrs in presence of HGF by immunoblot analysis; format: cell-based; details: dose 25-50 µM

C/C1=C\[C@H](OC(=O)Nc2ccc(Cl)cc2Cl)C[C@](C)(O)/C=C/[C@H](C(C)C)CC/C(C)=C/CC1
IC50 [1]: 10.4 µM
IC50 [2]: 15.4 µM

C/C1=C\[C@H](OC(=O)Nc2cc(C(F)(F)F)cc(C(F)(F)F)c2)C[C@](C)(O)/C=C/[C@H](C(C)C)CC/C(C)=C/CC1
IC50 [3]: 7.2 µM
IC50 [4]: 11.2 µM
IC50 [1]: 1.3 µM
IC50 [2]: 2.1 µM
IC50 [5]: 4.7 µM
IC50 [6]: 3.9 µM
IC50 [7]: 1.1 µM
inhibition [7]: Dose-dependent effect
inhibition [8]: Dose-dependent effect
inhibition [9]: Dose-dependent effect
inhibition [10]: Dose-dependent effect
inhibition [11]: Dose-dependent effect
inhibition [12]: Dose-dependent effect
Activity [13]: Active
Activity [14]: Non-Toxic
cytotoxicity at 24 h, 15 µM [15]: 8.3%
inhibition [16]: 31%
inhibition [17]: 10%
inhibition [18]: 11%
inhibition [19]: 9%
inhibition [20]: 22%
inhibition [21]: 49%
inhibition [22]: 30%
inhibition [23]: 84%
inhibition [24]: 31%
inhibition [25]: 3%
Activity [26]: 716 mm3
inhibition in vivo at 10 mg/kg [27]: 66.7%
Activity [28]: Non-Toxic
inhibition [29]: Active
inhibition [30]: Dose-dependent effect
Activity [31]: Active
IC50 [32]: 1.4 µM
IC50 [33]: 1.7 µM

C/C1=C\[C@H](OC(=O)Nc2ccc(Cl)cc2)C[C@](C)(O)/C=C/[C@H](C(C)C)CC/C(C)=C/CC1
IC50 [1]: 13.4 µM
IC50 [2]: 12.8 µM

CCc1ccc(NC(=O)O[C@H]2/C=C(\C)CC/C=C(\C)CC[C@@H](C(C)C)/C=C/[C@@](C)(O)C2)cc1
IC50 [1]: 26.3 µM
IC50 [2]: 25.7 µM

C/C1=C\[C@H](O)C[C@](C)(O)/C=C/[C@H](C(C)C)CC/C(C)=C/CC1
IC50 [7]: 22.6 µM
inhibition [34]: Dose-dependent effect

C/C1=C\[C@H](OC(=O)Nc2cccc(C)c2)C[C@](C)(O)/C=C/[C@H](C(C)C)CC/C(C)=C/CC1
IC50 [1]: 27.6 µM
IC50 [2]: 27.9 µM

C/C1=C\[C@H](OC(=O)Nc2ccc(C(F)(F)F)cc2)C[C@](C)(O)/C=C/[C@H](C(C)C)CC/C(C)=C/CC1
IC50 [1]: 8.9 µM
IC50 [2]: 11.6 µM

C/C1=C\[C@H](OC(=O)Nc2ccc(Cl)c(Cl)c2)C[C@](C)(O)/C=C/[C@H](C(C)C)CC/C(C)=C/CC1
IC50 [1]: 8.5 µM
IC50 [2]: 10.7 µM

C/C1=C\[C@H](OC(=O)Nc2cccc(F)c2)C[C@](C)(O)/C=C/[C@H](C(C)C)CC/C(C)=C/CC1
IC50 [1]: 16.2 µM
IC50 [2]: 19.5 µM

C/C1=C\[C@H](OC(=O)Nc2cc(Cl)cc(Cl)c2)C[C@](C)(O)/C=C/[C@H](C(C)C)CC/C(C)=C/CC1
IC50 [1]: 5.3 µM
IC50 [2]: 6.6 µM
IC50 [7]: 2.9 µM

C/C1=C\[C@H](OC(=O)Nc2c(Cl)cccc2Cl)C[C@](C)(O)/C=C/[C@H](C(C)C)CC/C(C)=C/CC1
IC50 [1]: 10.8 µM
IC50 [2]: 12.3 µM

C/C1=C\[C@H](OC(=O)NC2CCCCC2)C[C@](C)(O)/C=C/[C@H](C(C)C)CC/C(C)=C/CC1
IC50 [1]: 38.2 µM
IC50 [2]: 39.6 µM

C/C1=C\[C@H](OC(=O)Nc2ccc(-c3ccccc3)cc2)C[C@](C)(O)/C=C/[C@H](C(C)C)CC/C(C)=C/CC1
IC50 [1]: > 50 µM
IC50 [2]: > 50 µM

C/C1=C\[C@H](OC(=O)Nc2cccc3ccccc23)C[C@](C)(O)/C=C/[C@H](C(C)C)CC/C(C)=C/CC1
IC50 [1]: > 50 µM
IC50 [2]: > 50 µM

C/C1=C\[C@H](OC(=O)Nc2cccc(C(F)(F)F)c2)C[C@](C)(O)/C=C/[C@H](C(C)C)CC/C(C)=C/CC1
IC50 [1]: 4.9 µM
IC50 [2]: 5.8 µM
IC50 [7]: 1.8 µM

C/C1=C\[C@H](OC(=O)Nc2ccccc2F)C[C@](C)(O)/C=C/[C@H](C(C)C)CC/C(C)=C/CC1
IC50 [1]: 16.1 µM
IC50 [2]: 17.8 µM

C/C1=C\[C@H](OC(=O)Nc2cccc(Cl)c2)C[C@](C)(O)/C=C/[C@H](C(C)C)CC/C(C)=C/CC1
IC50 [1]: 9.1 µM
IC50 [2]: 10.6 µM
IC50 [7]: 3.4 µM

C/C1=C\[C@H](OC(=O)Nc2ccccc2)C[C@](C)(O)/C=C/[C@H](C(C)C)CC/C(C)=C/CC1
IC50 [1]: 19.8 µM
IC50 [2]: 22.7 µM

C/C1=C\[C@H](OC(=O)Nc2ccccc2Cl)C[C@](C)(O)/C=C/[C@H](C(C)C)CC/C(C)=C/CC1
IC50 [1]: 13.7 µM
IC50 [2]: 14.5 µM
